From article PMC12040169 (PLOS Biology, 2025)

Assay: in vitro
Conditions: human, hela cells, % viability

| Structure (SMILES) | viability at 28.5 h, 10 µM | viability at 28.5 h, 10 µM (bulk resorufin, single well) |
| --- | --- | --- |
| c1ccc(C2=Nn3c(Cn4nnc5ccccc54)nnc3SC2)cc1 [CBK268232] | 91.7% | – |
| Nn1c(Cn2nnc3ccccc32)n[nH]c1=S [CBK268233] | 111% | – |
| CN(C)CCn1c(C(=O)O)cc2ccccc21 [CBK268234C] | 110% | – |
| c1nc(NCCCN2CCOCC2)c2c3c(sc2n1)CCCCC3 [CBK268236] | 91.2% | – |
| O=C1CCCN1c1ccc(S(=O)(=O)N2CCN(c3ccccn3)CC2)cc1 [CBK268237] | 84.5% | – |
| Cc1cccc(-c2noc(CCC(=O)NCC3CCCO3)n2)c1 (stereo not shown) [CBK268241] | 118% | – |
| Cc1cc(=O)[nH]c(SCCC(=O)O)n1 [CBK268242] | 106% | – |
| O=C(COc1ccc(S(=O)(=O)N2CCCC2)cc1Cl)NCC1CCCO1 (stereo not shown) [CBK268243] | 86.6% | – |
| O=S(=O)(NCC(c1ccccc1)n1cc(-c2ccccc2)nn1)c1ccccc1 (stereo not shown) [CBK268244] | 85.2% | – |
| COc1ccc(-c2noc(CSc3nnc(-c4ccncc4)n3C)n2)cc1 [CBK268245] | 96.8% | – |
| O=C(CSc1nc2ccccc2c(=O)[nH]1)Nc1ccc(Cl)c(C(=O)O)c1 [CBK268246] | 103% | – |
| CC(=O)NCCc1nc2ccc(NC(=O)Cn3nc(C)c4ccccc4c3=O)cc2n1C [CBK268249] | 111% | – |
| Brc1cccc(CSc2nnc(COc3ccccc3)n2Cc2ccccc2)c1 [CBK268250] | 113% | – |
| O=C(COc1ccc(NS(=O)(=O)c2ccc3oc4cc([N+](=O)[O-])ccc4c3c2)cc1)N1CCOCC1 [CBK268252] | 100% | – |
| CCN(CC)S(=O)(=O)c1ccc(Nc2nc3ccc(Cl)cc3n3cnnc23)cc1 [CBK268259] | 87.6% | – |
| O=C(CSc1ncn(-c2ccccc2)n1)Nc1cc(Cl)cc(Cl)c1 [CBK268261] | 92% | – |
| Cn1c(CN2CCN(C(=O)NC3CCCCC3)CC2)nc2cc([N+](=O)[O-])ccc21 [CBK268266] | 97.1% | – |
| C[S+]([O-])CCC(NS(=O)(=O)c1ccccc1)C(=O)O (stereo not shown) [CBK268267] | 93.2% | – |
| Cc1cc(/C=C(/C#N)c2cccc(F)c2)c(C)n1-c1ccc(S(N)(=O)=O)cc1 [CBK268268] | 99.9% | – |
| O=[N+]([O-])c1nn(-c2ccc(Cl)cc2)[n+]([O-])c1NCc1ccccn1 [CBK268270] | 96.6% | – |
| c1ccc(-c2nn3c(Cn4nnc5ccccc54)nnc3s2)cc1 [CBK268271] | 106% | – |
| Cc1cc(S(=O)(=O)NCc2ccccc2)ccc1OCC(=O)N1CCN(C)CC1 [CBK268274] | 86.4% | – |

| Structure (SMILES) | viability at 28.5 h, 10 µM | viability at 28.5 h, 10 µM (bulk resorufin, single well) |
| --- | --- | --- |
| Cn1cnnc1SCC(C)(C)NS(=O)(=O)c1ccccc1 [CBK268276] | 96.4% | – |
| O=C(NCCSCc1ccco1)Nc1cccc(Cl)c1 [CBK268277] | 99.2% | – |
| CCOc1ccc(NC(=O)CSc2nc3nc(C)cc(C)n3n2)cc1 [CBK268278] | 107% | – |
| CC(C)(CSc1ncccn1)NS(=O)(=O)c1ccccc1 [CBK268282] | 88.3% | – |
| O=C(O)c1ccc2c(c1)C(=O)N(c1nc(-c3cccnc3)n[nH]1)C2=O [CBK268284] | 100% | – |
| O=C(Cc1cccc2ccccc12)Nc1ccc(Br)cc1C(=O)O [CBK268286] | 99.2% | – |
| CC(C)(Oc1ccc(Br)cc1)C(=O)NCCOc1ccccc1 [CBK268287] | 114% | – |
| CS(=O)(=O)Nc1ccc(C(=O)Nc2ccc(S(=O)(=O)N3CCCCCC3)cc2)cc1 [CBK268288] | 107% | – |
| O=C(CSc1nnc(Cc2cccs2)n1-c1ccccc1)c1c[nH]c2ccccc12 [CBK268290] | 88% | – |
| Cc1ccc(-c2nc3ncccc3o2)cc1NC(=S)NC(=O)c1ccc(-c2cccc([N+](=O)[O-])c2)o1 [CBK268294] | 102% | – |
| Cc1ccc(-n2cnnn2)c(S(=O)(=O)N2CCOCC2)c1 [CBK268297] | 102% | – |
| O=C(CSc1nnc(Nc2ccccc2)n1-c1ccccc1)Nc1ccc2c(c1)COC2=O [CBK268298] | 105% | – |
| CCc1cc2c(=O)c(-c3nc(C)cs3)c(C)oc2cc1OCc1ccc([N+](=O)[O-])cc1 [CBK268305] | 101% | – |
| O=S(=O)(NCc1ccc2c(c1)OCO2)c1ccc2c(c1)oc1ccccc12 [CBK268308] | 104% | – |
| CCCn1c(Nc2nc3ccccc3n2C)nc2ccccc21 [CBK268310] | 85.7% | – |
| COc1cc(NC(=O)c2cc3nc(-c4cccs4)cc(C(F)(F)Cl)n3n2)c(C(C)=O)cc1OC [CBK268312] | 100% | – |
| O=C(NC(C(=O)O)c1ccccc1)NC12CC3CC(CC(C3)C1)C2 (stereo not shown) [CBK268313] | 109% | – |
| O=[N+]([O-])c1nn(-c2ccc3c(c2)OCCO3)[n+]([O-])c1NCCN1CCN(c2ccccc2F)CC1 [CBK268314] | 109% | – |
| CCOc1ccc(-n2c(SCc3nc(-c4ccc(C)cc4)no3)nnc2-c2ccncc2)cc1 [CBK268315] | 98.3% | – |
| CC(C)NC(=O)Cn1cc(C(=O)COc2ccccc2)c2ccccc21 [CBK268317] | – | 82.6% |
| CCc1ccc2occ(CC(=O)Nc3ccc(C(=O)OC)cc3)c2c1 [CBK268318] | 105% | – |
| Clc1ccc(-c2nn3c4cc(N5CCNCC5)ccc4nc3c3ccccc23)cc1 [CBK268319] | 102% | – |

| Structure (SMILES) | viability at 28.5 h, 10 µM | viability at 28.5 h, 10 µM (bulk resorufin, single well) |
| --- | --- | --- |
| O=C(CSc1nc(Nc2ccccc2)nc(N2CCOCC2)n1)Nc1ccc2c(c1)OCO2 [CBK268320] | 96.5% | – |
| Cn1c(CN2CCN(S(=O)(=O)c3ccccc3)CC2)nc2cc([N+](=O)[O-])ccc21 [CBK268321] | 102% | – |
| CC(CO)(CO)NCc1ccc(-c2ccccc2)cc1 [CBK268325C] | 78.9% | – |
| O=C(COc1ccc(S(=O)(=O)N2CCCCC2)cc1)NCc1cccnc1 [CBK268328] | 97.6% | – |
| COc1ccccc1CC(=O)Nc1ccc(-c2nnc(-c3ccc(C)cc3)o2)cc1 [CBK268329] | 105% | – |
| c1ccc(CCc2nn3c(Cn4cnc5ccccc54)nnc3s2)cc1 [CBK268332] | 84.2% | – |
| COc1ccc(-c2nnc(SCC(=O)c3ccc(C)o3)o2)cc1 [CBK268334] | 88% | – |
| O=C(NC(=S)N1CCN(c2ccc([N+](=O)[O-])c(N3CCOCC3)c2)CC1)c1cc2ccccc2o1 [CBK268335] | 109% | – |
| Cc1ccc(NC(=O)Cn2nc(C)c([N+](=O)[O-])c2C)cc1Cl [CBK268336] | 98.5% | – |
| Brc1ccc(OCc2ccccc2)c(CNCc2ccccn2)c1 [CBK268340C] | 99.9% | – |
| Cc1ccc(-c2nn3c(C)nnc3c3ccccc23)cc1S(N)(=O)=O [CBK268342] | 97.3% | – |
| COc1cccc(NC(=O)CSc2nnc(-c3ccccc3O)n2-c2ccccc2)c1 [CBK268343] | 108% | – |
| COCCN1C(=O)c2ccc(C(=O)Nc3ccc(O)c(C(=O)O)c3)cc2C1=O [CBK268344] | 102% | – |
| O=C(CSc1nnc(-c2cc(Br)ccc2O)n1-c1ccccc1)N1CCc2ccccc21 [CBK268346] | 105% | – |
| COc1ccc(-c2nnc(SCC(=O)O)n2-c2cccc(C(F)(F)F)c2)cc1OC [CBK268347] | 88.7% | – |
| O=C(COc1ccc(S(=O)(=O)N2CCOCC2)cc1)N1CCc2ccccc2C1 [CBK268350] | 92.1% | – |
| O=C(Nc1cccc(S(=O)(=O)N2CCCC2)c1)c1nc[nH]n1 [CBK268353] | 103% | – |
| CC(C)C(CCC(=O)Nc1ccccc1[N+](=O)[O-])C(=O)O (stereo not shown) [CBK268356] | 86.3% | – |
| Cc1ccc(Cl)cc1NC(=O)c1ccc(NCCN2C(=O)C3C4C=CC(C4)C3C2=O)c([N+](=O)[O-])c1 (stereo not shown) [CBK268357] | 92.2% | – |
| O=C(CCn1c(=O)oc2ccccc21)Nc1ccc(S(=O)(=O)N2CCCCC2)cc1 [CBK268365] | 82% | – |
| CC(=O)NCCc1nc2cc(NC(=O)c3ccc([N+](=O)[O-])cc3)ccc2n1C [CBK268368] | 117% | – |
| Cc1ccc(Cl)cc1NC(=O)c1cc(NC(=O)C2CCCCC2C(=O)O)ccc1N1CCCCC1 (stereo not shown) [CBK268371] | 87% | – |

| Structure (SMILES) | viability at 28.5 h, 10 µM | viability at 28.5 h, 10 µM (bulk resorufin, single well) |
| --- | --- | --- |
| O=S(=O)(Cc1ccc(Cl)cc1)NCCCn1ccnc1 [CBK268372] | 106% | – |
| Cc1ccc(S(=O)(=O)NC(C)(C)CSc2nnc[nH]2)cc1 [CBK268374] | 81.5% | – |
| Cc1cc(=O)n2c3ccccc3n(CC(O)CN3CCN(C(c4ccccc4)c4ccccc4)CC3)c2c1C#N (stereo not shown) [CBK268375] | 89.8% | – |
| Cc1ccc([N+](=O)[O-])cc1NC(=O)CSc1nnc(-c2ccco2)o1 [CBK268378] | 117% | – |
| CS(=O)(=O)Nc1ccc(C(=O)Nc2ccc(S(=O)(=O)N3CCOCC3)cc2)cc1 [CBK268379] | 117% | – |
| O=C(CSCc1c(F)cccc1Cl)NCc1ccncc1 [CBK268381] | 87.1% | – |
| CC(=O)Nc1ccc(S(=O)(=O)Nc2cc(C)c(-n3nc4ccccc4n3)cc2O)cc1 [CBK268382] | 81.2% | – |
| Cc1nn2c(-c3cccc(NC(=O)CN4CCOCC4)c3)nnc2c2ccccc12 [CBK268383] | 84.3% | – |
| O=C(CSc1ccc(Cl)cc1)NNC(=O)c1cccc([N+](=O)[O-])c1 [CBK268384] | 93.5% | – |
| COc1ccccc1NC(=O)CSCc1nc2ccccc2[nH]1 [CBK268385] | 105% | – |
| O=C(NCCN1CCOCC1)NCC12CC3CC(C1)CC(c1ccccc1)(C3)C2 [CBK268388] | 89.1% | – |
| O=S(=O)(c1ccc(NC(=S)NCc2cccnc2)cc1)N1CCOCC1 [CBK268396] | 72.8% | – |
| O=C(O)c1cc(S(=O)(=O)N2CCOCC2)ccc1F [CBK268398] | 106% | – |
| CSc1nc2ccc(S(=O)(=O)N3CCCC3)cc2s1 [CBK268400] | 104% | – |
| COc1ccc(OC)c(Nc2nc(NCC3CCCO3)c3ccccc3n2)c1 (stereo not shown) [CBK268403C] | 90.9% | – |
| Cn1c(CN2CCCCC2)nc2cc(NS(=O)(=O)c3ccc(Cl)cc3)ccc21 [CBK268404] | 82.8% | – |
| Nn1c(SCc2cc(=O)[nH]c3ccccc23)nnc1C(O)c1ccccc1 (stereo not shown) [CBK268405] | 99.2% | – |
| Cc1cccc(-c2nc(=S)c3c(n2CCCN(C)C)CCCC3)c1 [CBK268406] | 102% | – |
| O=C(NCCc1ccccc1)c1ccccc1NS(=O)(=O)N1CCCC1 [CBK268407] | 80.5% | – |
